Data published in patent publication EP0781268B1, “DERIVATIVES OF 2-AMINO-1,2,3,4-TETRAHYDRONAPHTHALENE ACTIVE ON THE CARDIOVASCULAR SYSTEM” (ZAMBON GROUP S.p.A., priority 1994, dated 1996).
Structures can show the parent of a compound that is named as a salt.

What was measured:
D2 receptor = molecular target: T1, D2 receptor (Rattus norvegicus, UniProt P61169); assay: biochemical; type: binding; conditions: rat striated membranes; [3H]-domperidone 0.3 nM; BSA 0.01%; 37°C for 30 minutes; read-out: Affinity [K1 (nM)] D2 [^3H]-domperidone
T1 construct: from tissue; host or cells: rat brain striatum membranes
T1 sequence (P61169 whole entry): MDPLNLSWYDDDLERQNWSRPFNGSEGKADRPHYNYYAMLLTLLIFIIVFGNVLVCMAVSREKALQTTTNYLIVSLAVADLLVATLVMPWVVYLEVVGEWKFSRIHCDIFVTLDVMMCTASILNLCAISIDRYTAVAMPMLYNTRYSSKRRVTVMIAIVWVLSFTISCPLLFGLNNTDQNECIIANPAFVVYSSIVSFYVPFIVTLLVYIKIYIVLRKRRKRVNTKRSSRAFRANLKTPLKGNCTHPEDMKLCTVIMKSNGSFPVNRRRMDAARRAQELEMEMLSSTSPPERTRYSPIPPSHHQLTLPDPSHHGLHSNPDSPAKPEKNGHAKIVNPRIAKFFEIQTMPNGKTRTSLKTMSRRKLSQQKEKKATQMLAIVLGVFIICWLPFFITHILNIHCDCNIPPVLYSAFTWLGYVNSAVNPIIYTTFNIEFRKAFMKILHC
Description: The tissue were homogenized in 50 mM Tris/HCl buffer at pH 7.4 (1:100 w/v).
The homogenate was centrifuged and the pellet resuspended, recentrifuged and resuspended again in 50 mM Tris/HCl buffer at pH 7.4 containing 120 mM NaCl, 5mM KCl, 2 mM CaCl2 and 1 mM MgCl2.
Furthermore, bovine serum albumine (BSA) (0.01%) was added.
The mixture was incubated at 37°C for 30 minutes for each concentration of tested compounds.

D2-like (REA) = assay: D2-like activity in the Rabbit Ear Artery (REA) test, isolated arterial rings; parameters: species or system Male New Zealand rabbits; conditions: agonist activity; electrically stimulated ear artery rings (10 Hz, 1 msec, 40-80 mA); compounds cumulatively administered
Description: Arterial rings were prepared according to the method described by […] al., Science, 1978, 443 199, modified as follows. Male New Zealand rabbits weighing 2.5-3 Kg were sacrificed by intravenous injection of an excess of pentobarbital sodium and exsanguinated. The two ears were taken away and the central ear artery was dissected into 3 mm long rings. These preparations were set up in a 25 ml organ bath containing Krebs solution (mM/l): NaCl 118, KCl 4.7, CaCl2 2.5, MgSO4 1.2, NaHCO3 25, KH2PO4 1.2, glucose 11.1, equilibrated with 95% O2-5% CO2 and maintained at 35±1°C. Krebs solution was medicated with EDTA (10 μM) to prevent cathecolamine oxydation, desipramine (0.1 μM) and corticosterone (30 μM), to block neuronal and extraneuronal cathecolamine uptake. The preparations were electrically stimulated (10 Hz, 1 msec, 40-80 mA, 500 msec duration) at 5 minutes intervals. The tested compounds were cumulatively administered. Dopamine and dopexamine were used as reference substances.

D1-like (RSA) = assay: D1-like activity in the Rabbit Splenic Artery (RSA) test, isolated arterial rings; conditions: agonist activity; arterial preparations contracted with U46619 0.1 µM; compounds cumulatively administered
Description: Arterial rings were prepared according to Semeraro et al., Naunyn. Schmied. Arch. Pharmacol., 1990, 342 539. […] The tested compounds were cumulatively administered. Dopamine and dopexamine were used as reference substances.

D1 receptor = molecular target: T2, D1 receptor (Rattus norvegicus, UniProt P18901); assay: biochemical; type: binding; conditions: rat striated membranes; 0.2 nM [3H]-SCH23390; 37°C for 20 minutes; read-out: Affinity [K1 (nM)] D1 [^3H]-SCH23390
T2 construct: from tissue; host or cells: rat brain striatum membranes
T2 sequence (P18901 whole entry): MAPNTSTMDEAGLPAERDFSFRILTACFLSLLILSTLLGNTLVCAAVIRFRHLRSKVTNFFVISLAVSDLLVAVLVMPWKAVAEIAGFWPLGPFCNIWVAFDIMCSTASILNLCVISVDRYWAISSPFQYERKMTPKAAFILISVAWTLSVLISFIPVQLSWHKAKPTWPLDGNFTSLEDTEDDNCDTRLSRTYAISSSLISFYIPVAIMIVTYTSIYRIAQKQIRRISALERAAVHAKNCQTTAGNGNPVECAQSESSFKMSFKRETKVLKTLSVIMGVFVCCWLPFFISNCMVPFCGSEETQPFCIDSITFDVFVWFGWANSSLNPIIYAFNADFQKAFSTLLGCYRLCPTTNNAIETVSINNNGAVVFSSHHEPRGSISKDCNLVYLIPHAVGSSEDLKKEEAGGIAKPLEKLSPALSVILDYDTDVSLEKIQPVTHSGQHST
Description: The conditions of standard incubation (volume 1000 µl) for the test in which [^3H]-SCH23390 was used were the following: 50 mM Tris/HCl buffer (pH.7.4), 0.2 nM [^3H]-SCH23390, a membrane preparation of 130-140 µg proteins/ml.
The mixture was incubated with different concentrations of the tested compounds at 37°C for 20 minutes, filtered under vacuum through Whatman GF/C filters and then washed 4 times with 5 ml of 50 mM Tris/HCl buffer (pH 7.4) cooled with ice.

[1] = Fitton and Benfield, Drugs, 39(2), 308-330 (1990); cited from earlier work

Ki (D2 receptor) [nM] | Ki (D1 receptor) [nM] | SMILES | D2-like (REA) pD2 (D2-like (REA)) | D1-like (RSA) pD2 (D1-like (RSA)) | absorption when administered by oral route [1]
0.5 | 21 | Br.Br.CCCN(CCCCCCNCCc1cccc(O)c1)[C@H]1CCc2c(ccc(O)c2O)C1 [Compound 1, (S)-N-propyl-N-[6-[2-(3-hydroxyphenyl)ethylamino)-hexyl]-5,6-dihydroxy-1,2,3,4-tetrahydro-2-naphthylamine dihydrobromide] | 8.8 | 8.1 | 
0.2 | 10 | Br.Br.CCCN(CCCCCCNCCc1ccc(O)cc1)[C@H]1CCc2c(ccc(O)c2O)C1 [Compound 2, (S)-N-propyl-N-[6-[2-(4-hydroxyphenyl)ethylamino)hexyl]-5,6-dihydroxy-1,2,3,4-tetrahydro-2-naphthylamine dihydrobromide] | 8.8 | 8.4 | 
0.5 | 21 | Br.Br.CCCN(CCCCCCNCCc1ccc(O)c(O)c1)[C@H]1CCc2c(ccc(O)c2O)C1 [Compound 3, (S)-N-propyl-N-[6-[2-(3,4-dihydroxyphenyl)ethylamino)hexyl]-5,6-dihydroxy-1,2,3,4-tetrahydro-2-naphthylamine dihydrobromide] | 9.5 | 8.1 | 
0.1 | 33 | Br.Br.CCCN(CCCCCCNCCc1cc(O)cc(O)c1)[C@H]1CCc2c(ccc(O)c2O)C1 [Compound 4, (S)-N-propyl-N-[6-[2-(3,5-dihydroxyphenyl)ethylamino)hexyl]-5,6-dihydroxy-1,2,3,4-tetrahydro-2-naphthylamine dihydrobromide] | 10.6 | 8.5 | 
0.3 | 69 | CCCN(CCCCCCN(C)CCc1ccccc1)[C@H]1CCc2c(ccc(O)c2O)C1 [Compound 5, (S)-N-methyl-N-(2-phenylethyl)-N'-propyl-N'-[2-(5,6-dihydroxy-1,2,3,4-tetrahydro)naphthyl]-1.6-hexandiamine dihydrobromide] |  |  | 
 |  | Br.Br.CCCN(CCCCCCNCCc1ccc(O)c(O)c1)[C@H]1CCc2c(O)cccc2C1 [Compound 6, (S)-N-propyl-N-[6-[2-(3,4-dihydroxyphenyl)ethylamino]hexyl]-5-hydroxy-1,2,3,4-tetrahydro-2-naphthylamine dihydrobromide] | 9.6 | 7.5 | 
0.5 | 27 | CCCN(CCCCCCCCNCCc1ccc(O)c(O)c1)[C@H]1CCc2c(ccc(O)c2O)C1 [Compound 7, dihydrobromide] |  |  | 
1 | 361 | CCCN(CCCCNCCc1ccccc1)[C@H]1CCc2c(ccc(O)c2O)C1 [Compound 8, (S)-N-propyl-N-[4-(2-phenyletylamino)butyl]-5,6-dihydroxy-1,2,3,4--tetrahydro-2-naphthylamine dihydrobromide] | 8.2 | 6.4 | 
 |  | Br.Br.CCCN(CCCCCCNCCc1ccc(O)cc1)[C@H]1CCc2c(O)cccc2C1 [Compound 9, (S)-N-propyl-N-[6-[2-(4-hydroxyphenyl)ethylamino]hexyl]-5-hydroxy-1,2,3,4-tetrahydro-2-naphthylamine dihydrobromide] | 9.1 |  | 
0.1 | 40 | CCCN(CCCCCCNCCc1ccccc1)[C@H]1CCc2c(ccc(O)c2O)C1.Cl.Cl [Compound 10, (S)-N-propyl-N-[6-(2-phenylethylamino)hexyl]-5,6-dihydroxy-1,2,3,4-tetrahydro-2-naphthylamine dihydrochloride] | 9.2 | 7.2 | 
0.5 | 89 | CCCN(CCCCCCNCCc1ccccc1)[C@H]1CCc2cc(O)c(O)cc2C1 [Compound 11, (S)-N-propyl-N-[6-(2-phenylethylamino)hexyl]-6,7-dihydroxy-1,2,3,4--tetrahydro-2-naphthylamine dihydrochloride] | 8.4 | 6.2 | 
 |  | CCCN(CCCCCCNCCCc1ccccc1)[C@H]1CCc2c(ccc(O)c2O)C1 [Compound 12, (S)-N-propyl-N-[6-(3-phenylpropylamino)hexyl]-5,6-dihydroxy-1,2,3,4--tetrahydro-2-naphthylamine dihydrochloride] | 8.6 | 7.1 | 
0.8 | 43 | Br.Br.CCCN(CCCCCCNCCc1ccc(O)c(O)c1)[C@@H]1CCc2cc(O)c(O)cc2C1 [Compound 13, (R)-N-propyl-N-[6-[2-(3,4-dihydroxyphenyl)ethylamino]hexyl]-6,7-dihydroxy-1,2,3,4-tetrahydro-2-naphthylamine dihydrobromide] | 9.4 | 7.7 | 
 |  | Br.Br.CCCN(CCCCCCNCCc1ccc(O)cc1)[C@@H]1CCc2cc(O)c(O)cc2C1 [Compound 14, (R)-N-propyl-N-[6-[2-(4-hydroxyphenyl)ethylamino]hexyl]-6,7-dihydroxy-1,2,3,4-tetrahydro-2-naphthylamine dihydrobromide] | 9.9 | 7.9 | 
0.4 | 33 | Br.Br.CCCN(CCCCCCNCCc1ccccc1O)[C@H]1CCc2c(ccc(O)c2O)C1 [Compound 15, (S)-N-propyl-N-[6-[2-(2-hydroxyphenyl)ethylamino]hexyl]-5,6-dihydroxy-1,2,3,4-tetrahydro-2-naphthylamine dihydrobromide] | 9.2 | 7.3 | 
0.9 | 107 | CCCN(CCCCCCN(CCC)[C@H]1CCc2c(ccc(O)c2O)C1)CCc1ccc(O)cc1 [Compound 18, (S)-N-propyl-N-[2-(4-hydroxyphenyl)ethyl]-N'-propyl-N'-[2-(5,6-dihydroxy-1,2,3,4-tetrahydro)naphthyl]-1,6-hexandiamine dihydrobromide] | 9.2 | 6.6 | 
 |  | NCCc1ccc(O)c(O)c1 [Dopamine, reference compound] | 7.8 | 6.4 | not absorbed
1220 |  | Oc1ccc(CCNCCCCCCNCCc2ccccc2)cc1O [Dopexamine, dopexamine, reference compound] | 6.3 | 6.1 | not absorbed
